Source: patent EP1057484A1, “CELL DEATH INHIBITORS” (priority 1998, dated 1999)

Tests used:
[1] = system: Porcine ovarian granulosa cells (POGC); experiment: Test Example 2: cell death of terminally differentiated (FSH/LH) POGC on continued culture; assay type: cell-based; conditions: Sus scrofa, 168 h; 3 µM added 4 days after final medium refreshment; observation 7 days after addition; read-out: cells alive
Text: (§1) The ovarian granulosa cells are cells surrounding an ovum, and proliferate and differentiate by the action of follicle stimulating hormone (FSH) and luteinizing hormone (LH) in response to sexual cycles, during which they acquire a progesterone-producing ability. Unovulatory follicles finally undergo apoptosis and disappear. The differentiation process can be mimicked following to a known method (Endocrinology, Vol. 136, p. 3470, 1995) as shown in the following in vitro experiment. Furthermore, when they are continuously cultured with maintaining final differentiation ability, they are observed to undergo apoptosis as described below. Namely, porcine ovaries were rinsed with PBS buffer, and porcine ovarian granulosa cells (POGC) were collected by aspiration from antral follicles with a syringe. Cell fraction was recovered as a precipitate by centrifugation of the suspension. The operation of suspending the cell fraction into PBS buffer and subjecting the resulting suspension to centrifugation was repeated three times to wash the cells. […] Upon continued culture, these completely differentiated cells undergo cell death synchronously after about 5 days, the cell death being monitored by a trypan blue exclusion test and a MTT (3-(4,5-dimethylthiazol-2-yl)-2,5-diphenyltetrazolium bromide) test.

[2] = system: Porcine ovarian granulosa cells (POGC); experiment: Test Example 3: PGF2α-induced cell death of terminally differentiated POGC; assay type: cell-based; conditions: Sus scrofa; 3 µM added prior to PGF2α (50 µg/mL); observation after 16 hour; read-out: survival of the cells
Text: as §1, with “test. […]” for “test.”

[3] = system: cerebellar granule cells; experiment: Test Example 10: hydrogen peroxide-induced death of cerebellar granule cells; assay type: cell-based, rats; conditions: Rattus norvegicus, read-out: cells alive
Description: (§2) According to a known method (A Dissection and Tissue Culture Manual of the Nervous System, p. 211, 1989, Alan R, Liss, Inc.), cerebellar granule cells were isolated from the cerebellum of 7 days old rats and cultured. Namely, after conducting isolation procedures described in the above literature, the resulting cells were resuspended in DMEM containing 10% fetal bovine serum, 25 mM KCl and 2 mM glutamine, and seeded in poly-lysine coated plates. After the cells were cultured in a CO2 incubator for 48 hours according to a conventional method, cytosine-1-β-D(+)-arabinofuranoside (Ara-C) (10 µM) was added thereto, and the cell was continued to culture. The following experiments were conducted with the cells of 7 to 14 days old from the start day of the culture, the cells having completed neurite extension sufficiently. […] Furthermore, experiments were conducted by increasing a concentration of hydrogen peroxide to 300 µM. In the cases that Test Compound 18 (10 µM), Test Compound 19 (10 µM), or Test Compound 20 (10 µM) were added, about 90%, 90%, and 70% of the cells were alive, respectively, on observations after 16 hours.

[4] = system: undifferentiated POGC; experiment: Test Example 6: hydrogen peroxide-induced cell death of undifferentiated POGC; assay type: cell-based, porcine; conditions: Sus scrofa; 3 µM added prior to hydrogen peroxide (100 µm); observation after 24 hours; read-out: cells alive
[5] = system: erythrocytes; experiment: Test Example 13: hydrogen peroxide-induced death of erythrocytes; assay type: cell-based; conditions: Homo sapiens, Erythrocyte, read-out: ratios of dead erythrocytes (dark ghost cells)
Description: After human blood (2 mL) was centrifuged at 1000 rpm for 5 min, the resulting cell pellets containing erythrocytes were washed three times with a DMEM medium and the cells were resuspended in the same medium (15 mL) (about 5 × 10^8 cells/mL). Ten µL of this suspension was added with 10% FCS/DMEM (10 mL), and the cells were plated in 48 well plates (500 µL/well). When hydrogen peroxide (300 µM) was added to the erythrocyte culture solution and the cells were cultured for 24 hours, all erythrocytes were dead on observations under a light microscopy (all erythrocytes were subjected to shape changes from a bright, round and concave shape into a dark hemolytic ghost through multiple shape changes). On the other hand, Test Compound 14 (30 µM), Test Compound 18 (10 µM), Test Compound 19 (20 µM) or Test Compound 20 (20 µM) was added prior to the hydrogen peroxide addition.

[6] = system: POGC; experiment: Test Example 4: cell death of POGC in long term serum-free, hormone-free culture; assay type: cell-based, porcine; conditions: Sus scrofa, 168 h, observation at 7 days after the death of cells treated with no test compound, read-out: survival of the cells
Text: as §1, with “test. […]” for “test.”

[7] = system: monolayer cells derived from the mouse kidneys; experiment: Test Example 15: SNP-induced apoptosis of monolayer cells derived from kidneys; assay type: cell-based, mice; conditions: observation after 48 hours, read-out: cells alive
Description: Kidneys isolated from mice were dissected into minute pieces in a serum-free DMEM, which were dispersed with trypsin/EDTA treatment. After leaving it for a while, the supernatant was discarded, and the pellet was transferred to a culture plate and cultured in DMEM containing 10% fetal bovine serum in a CO2 incubator according to a conventional manner. After tissues were adhered onto a culture plate and subsequently cell colonies got formed, the tissues were removed and the colonies were subcultured in the same medium. The resulting monolayer cells derived from the mouse kidneys were morphologically different from fibroblasts. […] Then, Test Compound 14 (5 µM) or Test Compound 18 (2.5 µM) was added prior to the SNP addition and the cells were observed.

[8] = system: Primary cultured fibroblasts; experiment: Test Example 14: SNP-induced apoptosis of primary cultured fibroblasts; assay type: cell-based, mice; conditions: Mus musculus, Fibroblast, observation after 48 hours, read-out: cells alive
Description: Primary cultured fibroblasts were prepared from mice according to a known method (Kinou Saibou no Bunri to Baiyou (Isolation and Culture of Functional Cells), Maruzen, 1987, p. 59). Namely, after removing skin hairs from mice with shaving foam followed by disinfection with a chlorhexidine gluconate solution, tiny skin fragments were isolated. […] After migration of fibroblasts became obvious, the slide glasses and the residual skin fragments were removed, and the culture was continued. […] In the cases that Test Compound 14 (5 µM) or Test Compound 18 (2.5 µM) was added to the present culture system prior to the SNP addition, apoptosis in both cultures was inhibited and more than 95% of cells were alive on an observation after 48 hours.

[9] = system: POGC; experiment: Test Example 5: staurosporine-induced cell death of completely differentiated POGC; assay type: cell-based, porcine; conditions: Sus scrofa; 3 µM added prior to staurosporine (3 nM); observation after 68 hours; read-out: cells alive
Text: as §1, with “test. […]” for “test.”

[10] = system: undifferentiated POGC; experiment: Test Example 8: bilirubin-induced cell death of undifferentiated POGC; assay type: cell-based, porcine; conditions: Sus scrofa, 96 h; 10 µM added prior to bilirubin (30 µg/mL); observation after 4 days; read-out: survival of the cells
[11] = system: Porcine Ovarian Granulosa Cells; experiment: Test Example 7: inhibition of SNP-induced apoptosis of undifferentiated POGC; assay type: cell-based; conditions: Sus scrofa; for complete inhibition of apoptosis; SNP 0.5 mM; cells observed after 48 hours; read-out: Minimum effective concentration
[12] = system: 4B2 cells; experiment: Test Example 9: SNP-induced apoptosis of 4B2 granulosa cell line; assay type: cell-based; conditions: Mus musculus; 10 µM added prior to SNP (0.5 mM); observation after 24 hours; read-out: cells alive
Description: Mouse granulosa cells were transfected with SV40 T antigen and cDNA of steroidogenic factor-1 (SF-1/Ad4BP) to establish a cell line, named 4B2. The cell secretes progesterone in response to protein kinase-A. The 4B2 cells were cultured in 48-well culture plates until subconfluency in DMEM containing 10% fetal bovine serum in a CO2 incubator according to a conventional manner. After the medium was switched to DMEM containing 2% fetal bovine serum, SNP (0.5 mM) was added thereto. […] Then, prior to the addition of SNP, Test Compound 13, 14, 17, 20, 24 or 25 (10 µM each) was added to the present medium and observations on cells were made after 24 hours.

[13] = system: cerebellar granule cells; experiment: Test Example 11: SNP-induced death of cerebellar granule cells; assay type: cell-based, rats; conditions: Rattus norvegicus; 10 µM added prior to SNP (1.5 µM); observation after 12 hours; read-out: cells alive
[14] = system: cerebellar granule cells; experiment: Test Example 12: bilirubin-induced death of cerebellar granule cells; assay type: cell-based, rats; conditions: Rattus norvegicus; 10 µM added prior to bilirubin (100 µg/ml); observation after 18 hours; read-out: cells alive
Description: as §2
Neonatal jaundice is known to induce severe brain damages by way of abnormally high concentration of bilirubin in the body. […]

[15] = 10 µM, hydrogen peroxide 300 µM, observation after 16 hours
[16] = 2.5 µM added prior to SNP (0.5 mM)
[17] = 5 µM added prior to SNP (0.5 mM)

Structure (SMILES): CN(C)CCCn1cc(C2=C(c3c[nH]c4ccccc34)C(=O)NC2=O)c2ccccc21 [Compound 18]
- viability at 3 µM [1]: > 95%
- viability at 3 µM [2]: > 95%
- viability at 10 µM [3, 15]: ~90%
- viability at 3 µM [4]: > 95%
- cytotoxicity at 10 µM ([5]; 24 h): 20%
- viability at 3 µM [6]: > 95%
- viability at 2.5 µM [7, 16]: > 95%
- viability at 2.5 µM [8, 16]: > 95%
- viability at 3 µM [9]: > 95%

Structure (SMILES): Cc1cccc2c(C3=C(c4c[nH]c5c(C)cccc45)C(=O)N(C)C3=O)c[nH]c12 [Compound 25]
- viability at 10 µM ([3]; 10 µM added prior to hydrogen peroxide (10 µM), observation after 12 hours): > 95%
- viability at 10 µM [10]: 95%
- minimal effective concentration [11]: 0.3 µM
- viability at 10 µM [12]: > 95%
- viability at 10 µM [13]: > 95%

Structure (SMILES): CC(=O)NCCCn1cc(C2=C(c3c[nH]c4ccccc34)C(=O)N(C)C2=O)c2ccccc21 [Compound 20]
- viability at 10 µM [3, 15]: ~70%
- viability at 10 µM [14]: ~80%
- cytotoxicity at 20 µM ([5]; 20 µM added prior to hydrogen peroxide (300 µM), observation after 24 hours): 10%
- minimal effective concentration [11]: 7 µM
- viability at 10 µM [12]: > 95%
- viability at 10 µM [13]: > 95%

Structure (SMILES): CN1C(=O)C(c2c[nH]c3ccccc23)=C(c2c[nH]c3ccccc23)C1=O
- cytotoxicity at 30 µM ([5]; 30 µM added prior to hydrogen peroxide (300 µM), observation after 24 hours): 20%
- viability at 10 µM [10]: 50%
- viability at 10 µM [12]: > 95%
- viability at 5 µM [7, 17]: > 95%
- viability at 5 µM [8, 17]: > 95%
- viability at 10 µM [13]: > 95%
